Assay results: ChEMBL document CHEMBL1781926, “Synthesis of 1-naphtylpiperazine derivatives as serotoninergic ligands and their evaluation as antiproliferative agents” (Eur J Med Chem, 2011)
Active and inactive are the calls of the source. The rule behind the calls is not given here.

Key:
[1] = biological target: 5-hydroxytryptamine receptor 2A (Rattus norvegicus, UniProt P14842); test: Displacement of [3H]Ketanserin from 5HT2A receptor in Sprague-Dawley rat frontal cortical homogenates after 15 mins
[2] = biological target: T1, Adrenergic receptor alpha-2 (Rattus norvegicus, UniProt P22086+P19328+P22909); test: Displacement [3H]yohimbine from alpha 2 adrenergic receptor in rat brain cortex homogenates after 30 mins by liquid scintillation counting; assay type: tissue-based
T1 sequence (P22086 whole entry): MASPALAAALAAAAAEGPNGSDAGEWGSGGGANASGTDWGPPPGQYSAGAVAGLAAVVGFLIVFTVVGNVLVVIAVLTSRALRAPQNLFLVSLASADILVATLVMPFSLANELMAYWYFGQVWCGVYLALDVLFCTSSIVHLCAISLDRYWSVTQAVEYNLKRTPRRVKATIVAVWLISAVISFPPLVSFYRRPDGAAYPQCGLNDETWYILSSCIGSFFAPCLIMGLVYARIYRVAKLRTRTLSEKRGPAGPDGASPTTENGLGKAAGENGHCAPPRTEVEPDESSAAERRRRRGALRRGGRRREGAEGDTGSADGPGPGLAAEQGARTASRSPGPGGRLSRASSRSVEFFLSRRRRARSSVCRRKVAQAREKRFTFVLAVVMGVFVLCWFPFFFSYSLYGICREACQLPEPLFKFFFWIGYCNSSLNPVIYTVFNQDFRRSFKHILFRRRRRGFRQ
T1 sequence (P19328 whole entry): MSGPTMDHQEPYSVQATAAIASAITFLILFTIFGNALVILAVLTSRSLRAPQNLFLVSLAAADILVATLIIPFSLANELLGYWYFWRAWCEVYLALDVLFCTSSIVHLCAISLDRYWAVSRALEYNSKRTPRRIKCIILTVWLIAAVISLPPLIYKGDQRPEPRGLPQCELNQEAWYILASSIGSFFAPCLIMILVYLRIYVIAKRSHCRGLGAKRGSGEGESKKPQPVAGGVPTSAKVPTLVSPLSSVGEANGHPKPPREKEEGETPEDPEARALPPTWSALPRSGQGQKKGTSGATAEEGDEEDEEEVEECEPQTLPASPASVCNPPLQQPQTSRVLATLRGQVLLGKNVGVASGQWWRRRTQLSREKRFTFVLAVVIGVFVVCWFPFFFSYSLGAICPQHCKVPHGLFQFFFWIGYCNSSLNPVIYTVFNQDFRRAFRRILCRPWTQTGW
T1 sequence (P22909 whole entry): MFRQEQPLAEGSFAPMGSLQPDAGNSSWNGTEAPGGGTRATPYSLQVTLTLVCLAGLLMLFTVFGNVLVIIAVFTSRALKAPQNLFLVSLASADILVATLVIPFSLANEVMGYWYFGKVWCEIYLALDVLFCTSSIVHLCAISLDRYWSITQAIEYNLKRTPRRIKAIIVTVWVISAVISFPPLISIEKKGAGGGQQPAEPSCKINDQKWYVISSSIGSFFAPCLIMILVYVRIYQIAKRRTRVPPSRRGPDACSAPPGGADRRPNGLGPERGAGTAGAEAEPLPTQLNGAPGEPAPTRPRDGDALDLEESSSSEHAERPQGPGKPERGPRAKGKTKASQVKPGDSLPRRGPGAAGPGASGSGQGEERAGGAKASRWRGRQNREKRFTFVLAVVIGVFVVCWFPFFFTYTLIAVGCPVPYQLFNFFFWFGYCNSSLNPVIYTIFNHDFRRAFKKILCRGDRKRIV

[3] = biological target: T2, 5-hydroxytryptamine receptor 2C (Rattus norvegicus, UniProt P08909); test: Displacement of [3H]mesulergine from 5HT2C receptor in Sprague-Dawley rat frontal cortical homogenates after 15 mins
T2 sequence (P08909 whole entry): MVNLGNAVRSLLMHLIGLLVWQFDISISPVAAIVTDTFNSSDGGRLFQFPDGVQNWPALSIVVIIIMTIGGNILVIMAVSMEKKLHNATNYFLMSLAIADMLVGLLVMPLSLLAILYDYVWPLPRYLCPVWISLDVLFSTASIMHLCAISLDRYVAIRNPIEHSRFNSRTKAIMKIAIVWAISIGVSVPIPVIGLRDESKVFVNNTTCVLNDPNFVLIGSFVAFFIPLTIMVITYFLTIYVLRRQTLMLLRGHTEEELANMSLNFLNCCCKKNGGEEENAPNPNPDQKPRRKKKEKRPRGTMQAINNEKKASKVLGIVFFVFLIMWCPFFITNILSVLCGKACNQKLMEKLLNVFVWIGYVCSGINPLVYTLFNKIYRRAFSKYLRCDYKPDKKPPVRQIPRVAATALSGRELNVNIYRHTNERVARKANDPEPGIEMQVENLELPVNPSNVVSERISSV

D(1A) dopamine receptor = D(1A) dopamine receptor (Rattus norvegicus, UniProt P18901); test: Displacement of [3H]SCH 23390 from dopamine D1 receptor in rat corpora striatum homogenates after 15 mins by liquid scintillation counting
D(2) dopamine receptor = D(2) dopamine receptor (Rattus norvegicus, UniProt P61169); test: Displacement of [3H]spiperone from dopamine D2 receptor in rat corpora striatum homogenates after 15 mins by liquid scintillation counting
PC-3 = test: Antiproliferative activity against human PC3 cells assessed as growth inhibition after 96 hrs by SRB assay; assay type: functional, cell-based; settings: for IC50: PC-3, 96 h

Chain of 5-hydroxytryptamine receptor 2A (P14842 whole entry): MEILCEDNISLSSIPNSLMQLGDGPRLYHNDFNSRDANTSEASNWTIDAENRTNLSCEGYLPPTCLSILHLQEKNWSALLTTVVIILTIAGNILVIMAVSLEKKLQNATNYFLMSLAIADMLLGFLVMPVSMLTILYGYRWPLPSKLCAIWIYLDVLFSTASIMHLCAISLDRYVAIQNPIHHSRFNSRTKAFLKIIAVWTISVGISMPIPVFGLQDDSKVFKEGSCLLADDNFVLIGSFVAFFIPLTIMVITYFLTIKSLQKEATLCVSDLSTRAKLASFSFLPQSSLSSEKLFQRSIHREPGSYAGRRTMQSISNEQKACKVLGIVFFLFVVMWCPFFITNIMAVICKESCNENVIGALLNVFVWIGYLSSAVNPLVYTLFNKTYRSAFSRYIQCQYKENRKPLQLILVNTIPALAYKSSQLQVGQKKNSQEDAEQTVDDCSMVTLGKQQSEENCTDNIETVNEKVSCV
Chain of D(2) dopamine receptor (P61169 whole entry): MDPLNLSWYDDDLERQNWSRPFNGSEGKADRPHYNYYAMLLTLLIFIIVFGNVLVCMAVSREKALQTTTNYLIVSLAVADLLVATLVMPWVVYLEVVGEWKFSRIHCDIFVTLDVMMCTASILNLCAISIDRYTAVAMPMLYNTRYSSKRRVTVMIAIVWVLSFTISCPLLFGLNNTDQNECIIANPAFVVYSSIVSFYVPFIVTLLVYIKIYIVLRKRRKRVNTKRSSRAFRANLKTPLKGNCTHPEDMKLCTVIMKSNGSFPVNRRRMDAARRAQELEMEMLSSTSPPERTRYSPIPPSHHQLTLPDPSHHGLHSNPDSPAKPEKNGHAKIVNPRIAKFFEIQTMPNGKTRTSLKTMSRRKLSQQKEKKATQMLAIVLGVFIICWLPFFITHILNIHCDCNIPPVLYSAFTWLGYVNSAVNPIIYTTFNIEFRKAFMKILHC
Chain of D(1A) dopamine receptor (P18901 whole entry): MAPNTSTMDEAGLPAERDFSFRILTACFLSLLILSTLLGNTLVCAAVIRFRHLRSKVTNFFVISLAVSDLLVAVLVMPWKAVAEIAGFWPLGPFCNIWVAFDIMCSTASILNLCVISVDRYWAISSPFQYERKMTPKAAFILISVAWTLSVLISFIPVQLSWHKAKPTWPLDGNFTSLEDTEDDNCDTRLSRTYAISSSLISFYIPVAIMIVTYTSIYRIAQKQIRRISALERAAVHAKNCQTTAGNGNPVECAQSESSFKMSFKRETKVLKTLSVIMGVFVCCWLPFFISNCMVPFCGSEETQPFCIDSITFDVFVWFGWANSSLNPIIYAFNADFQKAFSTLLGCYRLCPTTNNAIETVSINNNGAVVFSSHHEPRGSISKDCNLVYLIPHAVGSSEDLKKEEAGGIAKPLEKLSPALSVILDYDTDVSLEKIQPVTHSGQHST

Row | SMILES | Ki [1] | Ki [2] | Ki [3] | Ki (D(1A) dopamine receptor) | Ki (D(2) dopamine receptor) | IC50 (PC-3) | Ki ([3]; read-out: Ki) | growth inhibition (GI) (PC-3)
1 | N#C/N=C(\NCCCN1CCN(c2cccc3ccccc23)CC1)c1ccccn1 | 0.224 µM | > 10 µM | Not Active | > 10 µM | > 10 µM | 23.8 µM | – | –
2 | O=c1c2ccccc2nnn1CCN1CCN(c2cccc3ccccc23)CC1 | 0.00529 µM | 1.88 µM | – | > 10 µM | > 10 µM | 10.6 µM | > 10 µM | Dose-dependent effect
3 | O=c1c2ccccc2nnn1OCCCN1CCN(c2cccc3ccccc23)CC1 | 0.721 µM | > 10 µM | Not Active | > 10 µM | 0.0854 µM | 12.3 µM | – | –
4 | O=C1C2C3C=CC(C3)C2C(=O)N1OCCCN1CCN(c2cccc3ccccc23)CC1 (stereo not given) | 0.0918 µM | 0.189 µM | Not Active | > 10 µM | 0.263 µM | 13 µM | – | Dose-dependent effect
5 | O=c1c2ccccc2nnn1CCCN1CCN(c2cccc3ccccc23)CC1 | 0.127 µM | 3.6 µM | – | > 10 µM | > 10 µM | 10.5 µM | > 10 µM | Dose-dependent effect
6 | O=c1c2ccccc2nnn1OCCN1CCN(c2cccc3ccccc23)CC1 | 1.32 µM | > 10 µM | Not Active | > 10 µM | > 10 µM | – | – | inactive
7 | O=C1C2C3C=CC(C3)C2C(=O)N1OCCN1CCN(c2cccc3ccccc23)CC1 (stereo not given) | 0.113 µM | 1.2 µM | Not Active | > 10 µM | > 10 µM | 47.7 µM | – | –
